Reference: patent publication US20230000842A1, “METHODS OF TREATING CARTILAGE DISORDERS THROUGH INHIBITION OF CLK AND DYRK” (SAMUMED, LLC, priority 2019, published 2023)
Like-named read-outs stand apart in the source and are kept apart here.

How the values were obtained:
[1] = system: primary human mesenchymal stem cells (hMSCs); assay: Chondrogenesis screening using primary human mesenchymal stem cells; type: cell-based; conditions: hMSC chondrogenesis; for EC50: concentration required to induce 50% levels of chondrogenesis with TGF-β3 as positive control, read-out: Conc (nM) of 50% TGF-β3 activity; for Emax: read-out: Max. Activity as % TGF-β3 activity
Excerpt: Representative compounds were screened using primary human mesenchymal stem cells (hMSCs) to determine their ability to induce chondrogenesis (process by which cartilage is developed).
Human Mesenchymal Stem Cell Culture: Primary human mesenchymal stem cells (hMSCs) were purchased from Lonza (Walkersville, Md.) and expanded in Mesenchymal Stem Cell Growth Media (Lonza). Cells between passage 3 and 6 were used for the experiments.
Area of nodules in each well was normalized to the average of 3 DMSO treated wells on the same plate using Excel (Microsoft Inc.). The normalized averages (fold change over DMSO) of 2 or 3 replicate wells for each compound concentration were calculated. Due to solubility limitations of some of the compounds, curve fitting was incomplete leading to inaccurate EC50 determinations.
Using TGF-β3 as a positive control, the concentration of representative compounds required to induce 50% levels of chondrogenesis is reported. In addition, the maximum activity of each compound and the respective dose that each compound reached maximum chondrogenesis activity is reported.

[2] = biological target: CLK2 kinase (Homo sapiens, UniProt P49760); assay: CLK2 kinase activity assay (Z-lyte FRET); type: biochemical; conditions: Z-lyte Ser/Thr 6 peptide, 60 μM ATP, 1 h at room temperature;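 note: FRET read-out as coumarin to fluorescein emission ratio, unphosphorylated peptide as 0% and phosphorylated peptide as 100% controls, duplicate reactions, non-linear regression fit of dose-response curves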
Chain of CLK2 kinase (P49760 whole entry): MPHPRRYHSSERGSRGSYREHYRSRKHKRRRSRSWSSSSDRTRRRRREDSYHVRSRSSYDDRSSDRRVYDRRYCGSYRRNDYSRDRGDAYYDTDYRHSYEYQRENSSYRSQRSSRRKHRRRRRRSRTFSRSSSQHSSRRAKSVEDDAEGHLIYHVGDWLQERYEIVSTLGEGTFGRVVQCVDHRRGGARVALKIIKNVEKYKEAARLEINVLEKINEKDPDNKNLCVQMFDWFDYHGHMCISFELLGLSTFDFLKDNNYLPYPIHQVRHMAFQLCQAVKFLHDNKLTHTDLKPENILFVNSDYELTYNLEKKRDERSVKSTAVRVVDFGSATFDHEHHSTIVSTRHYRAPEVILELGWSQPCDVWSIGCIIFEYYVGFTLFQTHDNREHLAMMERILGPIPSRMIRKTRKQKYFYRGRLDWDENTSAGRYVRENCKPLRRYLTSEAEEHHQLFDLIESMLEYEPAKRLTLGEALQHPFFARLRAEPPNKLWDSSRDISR

[3] = system: Wnt pathway activity (SW480 colon carcinoma cells stably expressing the Sp5-Luc reporter); assay: Wnt pathway activity screening assay (Sp5-Luc reporter gene assay); conditions: SW480 cells stably expressing Sp5-Luc reporter, 10-point dose-response from 10 μM, 36 to 48 hours
[4] = biological target: CLK3 kinase (Homo sapiens, UniProt P49761); assay: CLK3 kinase activity assay (Z-lyte FRET); type: biochemical; conditions: Z-lyte Ser/Thr 18 peptide, 156 μM ATP, 1 h at room temperature;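 note: kinase activity read as coumarin/fluorescein emission ratio by FRET, unphosphorylated peptide as 0% and phosphorylated peptide as 100% control, values from non-linear regression of dose-response curves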
Chain of CLK3 kinase (P49761 whole entry): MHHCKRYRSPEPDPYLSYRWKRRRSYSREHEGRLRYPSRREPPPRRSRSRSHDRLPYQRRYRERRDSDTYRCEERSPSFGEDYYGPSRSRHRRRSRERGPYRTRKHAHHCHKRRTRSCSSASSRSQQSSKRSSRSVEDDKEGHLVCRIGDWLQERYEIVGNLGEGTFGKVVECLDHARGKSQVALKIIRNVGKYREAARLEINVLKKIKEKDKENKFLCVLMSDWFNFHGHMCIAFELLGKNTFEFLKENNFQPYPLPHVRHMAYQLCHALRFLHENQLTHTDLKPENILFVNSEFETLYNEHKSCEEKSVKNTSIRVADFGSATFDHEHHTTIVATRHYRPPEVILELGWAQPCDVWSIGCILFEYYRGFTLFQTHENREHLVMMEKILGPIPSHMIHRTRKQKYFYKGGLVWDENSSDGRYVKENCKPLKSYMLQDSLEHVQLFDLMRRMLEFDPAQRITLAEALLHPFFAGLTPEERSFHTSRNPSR

[5] = Homo sapiens, Mesenchymal stem cells
[6] = Homo sapiens, Mesenchymal stem cells, maximum activity relative to TGF-β3 (10 ng/mL) positive control

## CCC(=O)Nc1cncc(-c2ccc3[nH]nc(-c4nc5c(-c6cccc(F)c6)cncc5[nH]4)c3c2)c1 [compound 120]
[1]; [5]
  EC50: 30 nM
[1]; [6]
  Emax: 139%
[2]
  EC50: 23 nM
[3]; Homo sapiens, SW480, Table 4
  EC50: 4.6 nM
[4]
  EC50: 61 nM

## CCC(=O)Nc1cncc(-c2ccc3[nH]nc(-c4nc5c(-c6cccc(F)c6)ccnc5[nH]4)c3n2)c1 [compound 121]
[1]; [6]
  Emax: 29.3%
[2]
  EC50: 3 nM
[3]; Homo sapiens, SW480, Table 4
  EC50: > 10000 nM
[4]
  EC50: 30 nM

## CCCC(=O)Nc1cncc(-c2cc3c(-c4nc5c(-c6cccc(F)c6)nccc5[nH]4)n[nH]c3cn2)c1 [compound 122]
[1]; [5]
  EC50: 10 nM
[1]; [6]
  Emax: 67.8%
[2]
  EC50: 11 nM
[3]; Homo sapiens, SW480, Table 4
  EC50: 18.8 nM
[4]
  EC50: 6960 nM

## CC(C)CC(=O)Nc1cncc(-c2ccc3[nH]nc(-c4nc5c(-c6cccc(F)c6)ccnc5[nH]4)c3c2)c1 [compound 124]
[1]; [6]
  Emax: 61%
[2]
  EC50: 37 nM
[3]; Homo sapiens, SW480, Table 4
  EC50: 1.4 nM
[4]
  EC50: 218 nM

## O=C(Nc1cncc(-c2cnc3[nH]nc(-c4nc5c(-c6cccc(F)c6)cncc5[nH]4)c3c2)c1)C1CC1 [compound 126]
[1]; [5]
  EC50: 10 nM
[1]; [6]
  Emax: 148%
[2]
  EC50: 12 nM
[3]; Homo sapiens, SW480, Table 4
  EC50: 11 nM
[4]
  EC50: 7330 nM

## O=C(Nc1cncc(-c2cnc3[nH]nc(-c4nc5c(-c6cccc(F)c6)cncc5[nH]4)c3c2)c1)N1CCOCC1 [compound 127]
[1]; [6]
  Emax: 96.8%
[2]
  EC50: 6 nM
[3]; Homo sapiens, SW480, Table 4
  EC50: 9 nM
[4]
  EC50: 42 nM

## O=C(CC1CCNCC1)Nc1cncc(-c2cc3c(-c4nc5c(-c6cccc(F)c6)ccnc5[nH]4)n[nH]c3cn2)c1 [compound 128]
[1]; [6]
  Emax: 54.7%
[2]
  EC50: 2 nM
[3]; Homo sapiens, SW480, Table 4
  EC50: 345 nM
[4]
  EC50: 28 nM

## O=C(Cc1ccccc1)Nc1cncc(-c2ccc3[nH]nc(-c4nc5c(-c6cccc(F)c6)cncc5[nH]4)c3c2)c1 [compound 129]
[1]; [5]
  EC50: 100 nM
[1]; [6]
  Emax: 124%
[2]
  EC50: 53 nM
[3]; Homo sapiens, SW480, Table 4
  EC50: 23 nM
[4]
  EC50: 164 nM

## CC(C)Nc1cncc(-c2cnc3[nH]nc(-c4nc5c(-c6cccc(F)c6)cncc5[nH]4)c3c2)c1 [compound 131]
[1]; [5]
  EC50: 30 nM
[1]; [6]
  Emax: 504%
[2]
  EC50: 13 nM
[3]; Homo sapiens, SW480, Table 4
  EC50: 1.2 nM
[4]
  EC50: 160 nM

## CN(C)c1cncc(-c2ccc3[nH]nc(-c4nc5c(-c6cccc(F)c6)cncc5[nH]4)c3n2)c1 [compound 132]
[1]; [5]
  EC50: 10 nM
[1]; [6]
  Emax: 154%
[2]
  EC50: 1 nM
[3]; Homo sapiens, SW480, Table 4
  EC50: 638 nM
[4]
  EC50: 12 nM

## CN(C)c1cncc(-c2ccc3[nH]nc(-c4nc5c(-c6cccc(F)c6)ccnc5[nH]4)c3n2)c1 [compound 133]
[1]; [5]
  EC50: 10 nM
[1]; [6]
  Emax: 83.8%
[2]
  EC50: 2 nM
[3]; Homo sapiens, SW480, Table 4
  EC50: 659 nM
[4]
  EC50: 37 nM

## CCNCc1cncc(-c2cnc3[nH]nc(-c4nc5c(-c6cccc(F)c6)cccc5[nH]4)c3c2)c1 [compound 134]
[1]; [6]
  Emax: 98.7%
[2]
  EC50: 6 nM
[3]; Homo sapiens, SW480, Table 4
  EC50: 40.9 nM
[4]
  EC50: 76 nM

## CN(C)Cc1cncc(-c2cc3c(-c4nc5c(-c6cccc(F)c6)cccc5[nH]4)n[nH]c3cn2)c1 [compound 135]
[1]; [5]
  EC50: 100 nM
[1]; [6]
  Emax: 311%
[2]
  EC50: 4 nM
[3]; Homo sapiens, SW480, Table 4
  EC50: 82.2 nM
[4]
  EC50: 41 nM

## CN(C)Cc1cncc(-c2ccc3[nH]nc(-c4nc5c(-c6cccc(F)c6)cccc5[nH]4)c3n2)c1 [compound 136]
[1]; [5]
  EC50: 30 nM
[1]; [6]
  Emax: 84.6%
[2]
  EC50: 2 nM
[3]; Homo sapiens, SW480, Table 4
  EC50: 637 nM
[4]
  EC50: 109 nM

## CN(C)Cc1cncc(-c2cnc3[nH]nc(-c4nc5c(-c6cccc(F)c6)cncc5[nH]4)c3c2)c1 [compound 137]
[1]; [5]
  EC50: 30 nM
[1]; [6]
  Emax: 183%
[2]
  EC50: 1 nM
[3]; Homo sapiens, SW480, Table 4
  EC50: 13 nM
[4]
  EC50: 7 nM

## CN(C)Cc1cncc(-c2ccc3[nH]nc(-c4nc5c(-c6cccc(F)c6)nccc5[nH]4)c3n2)c1 [compound 138]
[1]; [5]
  EC50: 30 nM
[1]; [6]
  Emax: 75.6%
[2]
  EC50: 1 nM
[3]; Homo sapiens, SW480, Table 4
  EC50: 1050 nM
[4]
  EC50: 197 nM

## CN(C)Cc1cncc(-c2ccc3[nH]nc(-c4nc5c(-c6cccc(F)c6)cncc5[nH]4)c3n2)c1 [compound 139]
[1]; [6]
  Emax: 16.7%
[2]
  EC50: 3 nM
[3]; Homo sapiens, SW480, Table 4
  EC50: 1050 nM
[4]
  EC50: 79 nM

## Fc1cccc(-c2cncc3[nH]c(-c4n[nH]c5ccc(-c6cncc(CN7CCC(F)(F)C7)c6)cc45)nc23)c1 [compound 141]
[1]; [6]
  Emax: 102%
[1]
  EC50: 30 nM
[2]
  EC50: 9 nM
[3]; Homo sapiens, SW480, Table 4
  EC50: 26.4 nM
[4]
  EC50: 33 nM

## Fc1cccc(-c2cncc3[nH]c(-c4n[nH]c5ccc(-c6cncc(CN7CCC(F)(F)C7)c6)cc45)nc23)c1 [compound 142]
[1]
  EC50: 10 nM
[1]; maximum activity relative to TGF-β3 (10 ng/mL) positive control
  Max. Activity as % TGF-β3 activity: 85.77%
[2]
  EC50: 21 nM
[3]; Table 4
  EC50: 19.1 nM
[4]
  EC50: 90 nM

## Oc1cncc(-c2ccc3[nH]nc(-c4nc5c(-c6cccc(F)c6)cccc5[nH]4)c3c2)c1 [compound 143]
[1]; [6]
  Emax: 52.2%
[2]
  EC50: 17 nM
[3]; Homo sapiens, SW480, Table 4
  EC50: 11 nM
[4]
  EC50: 45 nM

## Oc1cncc(-c2ccc3[nH]nc(-c4nc5c(-c6cccc(F)c6)nccc5[nH]4)c3n2)c1 [compound 144]
[1]; [5]
  EC50: 6.86 nM
[1]; [6]
  Emax: 56.7%
[2]
  EC50: 5 nM
[3]; Homo sapiens, SW480, Table 4
  EC50: 460 nM
[4]
  EC50: 93 nM

## Oc1cncc(-c2ccc3[nH]nc(-c4nc5c(-c6cccc(F)c6)cncc5[nH]4)c3n2)c1 [compound 145]
[1]; [5]
  EC50: 20.6 nM
[1]; [6]
  Emax: 53.6%
[2]
  EC50: 5 nM
[3]; Homo sapiens, SW480, Table 4
  EC50: > 10000 nM
[4]
  EC50: 74 nM

## Oc1cncc(-c2ccc3[nH]nc(-c4nc5c(-c6cccc(F)c6)ccnc5[nH]4)c3n2)c1 [compound 146]
[1]; [5]
  EC50: 2.29 nM
[1]; [6]
  Emax: 59.3%
[2]
  EC50: 5 nM
[3]; Homo sapiens, SW480, Table 4
  EC50: 375 nM
[4]
  EC50: 113 nM

## COc1cncc(-c2cc3c(-c4nc5c(-c6cccc(F)c6)cncc5[nH]4)n[nH]c3cn2)c1 [compound 147]
[1]; [5]
  EC50: 300 nM
[1]; [6]
  Emax: 140%
[2]
  EC50: 9 nM
[3]; Homo sapiens, SW480, Table 4
  EC50: 31.3 nM
[4]
  EC50: 493 nM

## COc1cncc(-c2ccc3[nH]nc(-c4nc5c(-c6cccc(F)c6)nccc5[nH]4)c3n2)c1 [compound 148]
[1]; [5]
  EC50: 20.6 nM
[1]; [6]
  Emax: 60.4%
[2]
  EC50: 4 nM
[3]; Homo sapiens, SW480, Table 4
  EC50: 120 nM
[4]
  EC50: 124 nM

## Fc1cccc(-c2ccnc3[nH]c(-c4n[nH]c5ncc(-c6cn[nH]c6)cc45)nc23)c1 [compound 153]
[1]; [5]
  EC50: 100 nM
[1]; [6]
  Emax: 110%
[2]
  EC50: 11 nM
[3]; Homo sapiens, SW480, Table 4
  EC50: 30.2 nM
[4]
  EC50: 93 nM

## Cn1cc(-c2cnc3[nH]nc(-c4nc5c(-c6cccc(F)c6)nccc5[nH]4)c3c2)cn1 [compound 155]
[1]; [5]
  EC50: 30 nM
[1]; [6]
  Emax: 74.9%
[2]
  EC50: 14 nM
[3]; Homo sapiens, SW480, Table 4
  EC50: 11.1 nM
[4]
  EC50: 138 nM

## Cn1cc(-c2cc3c(-c4nc5c(-c6cccc(F)c6)nccc5[nH]4)n[nH]c3cn2)cn1 [compound 156]
[1]; [5]
  EC50: 100 nM
[1]; [6]
  Emax: 110%
[2]
  EC50: 10 nM
[3]; Homo sapiens, SW480, Table 4
  EC50: 10 nM
[4]
  EC50: 1800 nM

## Cn1cc(-c2cc3c(-c4nc5c(-c6cccc(F)c6)cncc5[nH]4)n[nH]c3cn2)cn1 [compound 157]
[1]; [5]
  EC50: 100 nM
[1]; [6]
  Emax: 71%
[2]
  EC50: 2 nM
[3]; Homo sapiens, SW480, Table 4
  EC50: 70 nM
[4]
  EC50: 416 nM

## Cc1ncc(-c2ccc3[nH]nc(-c4nc5c(-c6cccc(F)c6)cccc5[nH]4)c3n2)n1C [compound 158]
[1]; [5]
  EC50: 10 nM
[1]; [6]
  Emax: 112%
[2]
  EC50: 3 nM
[3]; Homo sapiens, SW480, Table 4
  EC50: 150 nM
[4]
  EC50: 83 nM
